Earlier results on 50 compounds are cited in article PMC12308805, “Ultrahigh-Throughput Virtual Screening Strategies against PPI Targets: A Case Study of STAT Inhibitors” (Journal of Chemical Information and Modeling, 2025).

In one data set the test system is STAT3. Particulars: sheet 6QHD_actives_decoys; retrospective screening set for STAT3 SH2 domain (PDB 6QHD); […]; ref DUD-E; cited from earlier work.
For `Cc1cc(NS(=O)(=O)c2ccc(NC(=O)CCCCC(=O)Nc3ccc(S(=O)(=O)Nc4cc(C)on4)cc3)cc2)no1` [Decoy592], the Type entry was “Inactive (Decoy)”.

As to `COc1cc(/C=N\NC(=O)N/N=C/c2cc(OC)c(O)c([N+](=O)[O-])c2)cc([N+](=O)[O-])c1O` [Decoy599], the Type result is “Inactive (Decoy)”.

Take `COc1ccccc1NS(=O)(=O)c1ccc(OC)c(NS(=O)(=O)c2ccc(C(=O)O)cc2)c1` [Decoy605]: the Type entry is on record as “Inactive (Decoy)”. `CCN1C(=O)[C@@](C)(C(=O)Nc2ccc(S(=O)(=O)Nc3nccs3)cc2)Oc2ccccc21` [Decoy608]: the Type entry was “Inactive (Decoy)”. On to `COc1ccc(NC(=O)c2cc(C)nc3c2c(C)nn3C)cc1NS(=O)(=O)c1ccc(F)cc1` [Decoy619], for which the Type result is reported as “Inactive (Decoy)”.

The data set is the same for the next values; noted with them: sheet 6QHD_actives_decoys; retrospective screening set for STAT3 SH2 domain (PDB 6QHD); decoys generated with DUD-E and presumed inactive, not tested; ref DUD-E; cited from earlier work.
On to `C=CCn1c(CNc2ccc(Cl)cc2)nnc1S[C@@H](C)C(=O)N/N=C/c1ccc([N+](=O)[O-])s1` [Decoy574], for which the Type result is “Inactive (Decoy)”. Consider `Cc1ccc(S(=O)(=O)NNc2ncnc(NNC(=O)c3ccccc3)c2[N+](=O)[O-])cc1` [Decoy575], for which the Type result is listed as “Inactive (Decoy)”. As to `CCCn1c(O)nnc1SCC1=C(C(=O)OCC)[C@H](c2ccc(Cl)cc2)NC(=O)N1` [Decoy576], the Type entry was “Inactive (Decoy)”. Regarding `Cc1ccc(S(=O)(=O)CNC(=O)[C@H](c2ccc([N+](=O)[O-])cc2)N(Cc2ccco2)C(=O)CO)cc1` [Decoy577], the Type result was “Inactive (Decoy)”.

Regarding `CCCCOc1ccc([C@@H]2C(C(=O)c3nc4c(C)cccn4c3C)=C(O)C(=O)N2CCN(C)C)cc1OCC` [Decoy578], the Type result was “Inactive (Decoy)”.

As for `CC[C@@H]1OC(=O)[C@@H](C)[C@@H](O[C@@H]2C[C@@](C)(OC)[C@H](O)[C@H](C)O2)[C@@H](C)[C@@H](O[C@H]2O[C@@H](C)C[C@@H](N(C)C)[C@H]2O)[C@](C)(O)C[C@@H](C)/C(=N\OCOCCOC)[C@@H](C)[C@@H](O)[C@]1(C)O` [Decoy579], the Type entry is reported as “Inactive (Decoy)”. As to `CC[C@H]1OC(=O)[C@@H](C)[C@@H](O[C@@H]2C[C@@](C)(OC)[C@H](O)[C@H](C)O2)[C@@H](C)[C@@H](O[C@H]2O[C@@H](C)C[C@@H](N(C)C)[C@H]2O)[C@](C)(O)C[C@@H](C)/C(=N\OCOCCOC)[C@@H](C)[C@@H](O)[C@@]1(C)O` [Decoy580], the Type entry is recorded as “Inactive (Decoy)”.

`CC[C@H]1OC(=O)[C@H](C)[C@@H](O[C@@H]2C[C@@](C)(OC)[C@H](O)[C@H](C)O2)[C@H](C)[C@H](O[C@H]2O[C@@H](C)C[C@@H](N(C)C)[C@H]2O)[C@](C)(O)C[C@@H](C)/C(=N\OCOCCOC)[C@H](C)[C@@H](O)[C@]1(C)O` [Decoy581]: the Type result is reported as “Inactive (Decoy)”.

On to `CC[C@H]1OC(=O)[C@H](C)[C@@H](O[C@@H]2C[C@](C)(OC)[C@H](O)[C@H](C)O2)[C@H](C)[C@H](O[C@H]2O[C@@H](C)C[C@@H](N(C)C)[C@H]2O)[C@](C)(O)C[C@@H](C)/C(=N\OCOCCOC)[C@H](C)[C@@H](O)[C@]1(C)O` [Decoy582], for which the Type entry is listed as “Inactive (Decoy)”.

For `CC[N+]1=c2cc3c(cc2CCC1)=Nc1cc2c(cc1O3)N(CCCC(=O)NCCCCCNC(=O)CCCC[C@@H]1SC[C@@H]3NC(=O)N[C@@H]31)C(C)(C)C=C2CS(=O)(=O)[O-]` [Decoy583], the Type entry is given as “Inactive (Decoy)”. In the case of `COc1cc(/C=N/Nc2nc(SCC(=O)Nc3ccc(C)cc3C)n[nH]2)cc(OC)c1OC` [Decoy584], the Type entry was “Inactive (Decoy)”. For the compound `CCOC(=O)Cn1nnnc1[C@@H](CC)N(Cc1ccc(F)cc1)Cc1cc2cc3c(cc2[nH]c1=O)OCCO3` [Decoy585], the Type entry is “Inactive (Decoy)”. Take `COc1ccc(CCNc2ccc3nnc(CCNS(=O)(=O)c4ccc(C)cc4)n3n2)cc1OC` [Decoy586]: the Type result is “Inactive (Decoy)”. Regarding `CCOC(=O)CNC(=O)[C@@H](c1ccc(F)cc1)N(C(=O)c1snc(C(N)=O)c1N)c1ccccc1F` [Decoy587], the Type result is “Inactive (Decoy)”.

On to `C[N+]1=C(/C=C/C=C2/N(CCCCC(=O)NCCOCCOCCNCCO[C@H]3O[C@@H](CO)[C@@H](O)[C@H](O)[C@@H]3O)c3ccccc3C2(C)C)C(C)(C)c2ccccc21` [Decoy588], for which the Type result is reported as “Inactive (Decoy)”. Regarding `C[N+]1=C(/C=C/C=C2/N(CCCCC(=O)NCCOCCOCCNCCO[C@H]3O[C@@H](CO)[C@@H](O)[C@H](O)[C@H]3O)c3ccccc3C2(C)C)C(C)(C)c2ccccc21` [Decoy589], the Type entry was “Inactive (Decoy)”.

Turning to `CC(=O)OC[C@@H](OC(C)=O)[C@H](OC(C)=O)[C@H](OC(C)=O)[C@H](OC(C)=O)[C@@H]1N[C@H](C(=O)O)C(C)(C)S1` [Decoy590], the Type result was “Inactive (Decoy)”. As to `O=C(CSc1n[nH]c(N/N=C/c2cc(Cl)ccc2O)n1)NNC(=O)c1ccc(Cl)cc1` [Decoy591], the Type entry was “Inactive (Decoy)”.

Consider `CCOC(=O)c1[nH]c(C)c(C(=O)C2=C(O)C(=O)N(CCCN(C)C)[C@@H]2c2cc(OC)c(OC)c(OC)c2)c1C` [Decoy593], for which the Type result is “Inactive (Decoy)”.

Take `CCOc1cc(/C=N/NC(=O)c2nnn(-c3nonc3N)c2CSC2=NCCS2)cc(Br)c1OCc1cccc(C)c1` [Decoy594]: the Type result is recorded as “Inactive (Decoy)”. Consider `CCOC(=O)CNC(=O)CN1CCOCCOCCN(CC(=O)NCC(=O)OCC)CCOCCOCC1` [Decoy595], for which the Type entry is “Inactive (Decoy)”. `CC[C@H]1OC(=O)[C@H](C)[C@@H](O[C@H]2OC[C@@](C)(OC)[C@@H](O)[C@@H]2C)[C@@H](C)[C@@H](O[C@H]2O[C@H](C)C[C@H](N(C)C)[C@H]2O)[C@](C)(O)C[C@H](C)/C(=N/O)[C@@H](C)[C@@H](O)[C@@]1(C)O` [Decoy596]: the Type result was “Inactive (Decoy)”.

With `Cc1cc(C)n(CCCNC(=O)c2cc(=O)[nH]c3ccc(S(=O)(=O)N4CCOCC4)cc23)n1` [Decoy597], the Type entry is reported as “Inactive (Decoy)”. Consider `CC(C)(C)c1cc(Br)cc([C@@H](CN(C(=O)CN)C(=O)c2cc(O)cc(N=C3NCC(O)CN3)c2)C(=O)O)c1` (some centres unmarked) [Decoy598], for which the Type result was “Inactive (Decoy)”. As to `CCOc1cc(N2CCOCC2)c(OCC)cc1NC(=O)c1oc2ccccc2c1CSc1ncn[nH]1` [Decoy600], the Type result was “Inactive (Decoy)”. With `C=CCn1c(CCCN2C(=O)c3cccc4cccc(c34)C2=O)nnc1SCC(=O)Nc1ccc(S(N)(=O)=O)cc1` [Decoy601], the Type result is “Inactive (Decoy)”. As for `Cc1ccc(S(=O)(=O)NCC(=O)N/N=C/c2ccc(OC(=O)c3ccccc3)cc2OC(=O)c2ccccc2)cc1` [Decoy602], the Type result is reported as “Inactive (Decoy)”. On to `CCCCCN(C(=O)Cn1c(=O)n(CC)c(=O)c2ccccc21)c1c(N)n(CCCC)c(=O)[nH]c1=O` [Decoy603], for which the Type result is given as “Inactive (Decoy)”. Turning to `CC[C@@H]1Oc2ccc(S(=O)(=O)N3CCN(C(=O)CNC(=O)c4cccs4)CC3)cc2NC1=O` [Decoy604], the Type result is “Inactive (Decoy)”. Take `COc1ccc(C[C@@H]2COC(=O)[C@@H]2Cc2ccc(O[C@@H]3O[C@H](CO)[C@@H](O)[C@H](O)[C@H]3O)c(OC)c2)cc1OC` [Decoy606]: the Type entry was “Inactive (Decoy)”. Take `CC(=O)N[C@H]1[C@H]([C@H](O)[C@H](O)CO)O[C@](O[C@H]2[C@@H](O)[C@@H](CO)O[C@@H](O[C@H]3[C@H](O)[C@@H](O)[C@H](NC(C)=O)O[C@@H]3CO)[C@@H]2O)(C(=O)O)C[C@@H]1O` [Decoy607]: the Type result was “Inactive (Decoy)”.

For the compound `CCOC(=O)Cn1nnnc1[C@@H](CC)N(CCc1cccc(C)c1)Cc1cc2cc(OCC)ccc2[nH]c1=O` [Decoy609], the Type result is “Inactive (Decoy)”. For the compound `Cc1ccc(S(=O)(=O)NCc2ccco2)cc1C(=O)NNC(=O)c1nn(-c2ccccc2)cc1O` [Decoy610], the Type entry is reported as “Inactive (Decoy)”. Turning to `C=C1CC[C@@H]2[C@](C)(CC[C@H](O)[C@@]2(C)CO[C@H]2O[C@@H](CO[C@H]3O[C@@H](CO)[C@@H](O)[C@H]3O)[C@@H](O)[C@@H](O)[C@H]2O)[C@@H]1CC/C(C)=C\CO` [Decoy611], the Type entry was “Inactive (Decoy)”.

Turning to `C=C1CC[C@H]2[C@](C)(CO[C@H]3O[C@@H](CO[C@H]4O[C@@H](CO)[C@@H](O)[C@H]4O)[C@@H](O)[C@@H](O)[C@H]3O)[C@@H](O)CC[C@]2(C)[C@H]1CC/C(C)=C\CO` [Decoy612], the Type entry was “Inactive (Decoy)”. Consider `O=C(O)c1cccc(NC(=O)[C@@H]2C[C@H](SS[C@@H]3CN[C@H](C(=O)Nc4cccc(C(=O)O)c4)C3)CN2)c1` [Decoy613], for which the Type entry is “Inactive (Decoy)”.

Consider `Cc1ccc(S(=O)(=O)CNC(=O)[C@@H](c2ccc3c(c2)OCO3)N(C)C(=O)c2cccc(O)c2O)cc1` [Decoy614], for which the Type entry was “Inactive (Decoy)”.

For `COc1cc([N+](=O)[O-])ccc1NC(=O)C[C@H]1N=C(N/C(N)=N/c2ccccc2C)N=C1O` [Decoy615], the Type entry is “Inactive (Decoy)”. Consider `CC[C@@H](c1nnnn1CCOC)N(CCc1ccc(OC)c(OC)c1)Cc1cc2c(C)cc(C)cc2[nH]c1=O` [Decoy616], for which the Type result is “Inactive (Decoy)”. Regarding `CCOC(=O)c1c(C)oc(NC(=O)[C@@H](CC)n2c(N)nnc2SCC(=O)OC)c1C(=O)OCC` [Decoy617], the Type entry is “Inactive (Decoy)”. Turning to `Cc1ccc(NC(=O)NC[C@@H](C)Cn2cccn2)cc1NC(=O)NC[C@H](C)Cn1cccn1` [Decoy618], the Type result is listed as “Inactive (Decoy)”. For the compound `OC[C@@H](O)CN(C[C@H](O)CO)c1ccc(Cc2ccc(N(C[C@H](O)CO)C[C@@H](O)CO)cc2)cc1` [Decoy620], the Type result is given as “Inactive (Decoy)”.

As to `C[C@H](OC(=O)[C@@](O)(Cc1ccc(O)cc1)[C@H](C)O)[C@@](O)(Cc1ccc(O)cc1)C(=O)OCc1ccc(O[C@H]2O[C@@H](CO)[C@@H](O)[C@@H](O)[C@H]2O)cc1` [Decoy621], the Type result is “Inactive (Decoy)”. Consider `COC(=O)[C@@H]1O[C@@H](O[C@@H]2CC[C@@]3(C)[C@@H](CC[C@@H]4[C@H]5CC[C@@H](/C(COC(C)=O)=N/NC(N)=O)[C@@]5(C)CC(=O)[C@H]43)C2)[C@H](OC(C)=O)[C@@H](OC(C)=O)[C@@H]1OC(C)=O` [Decoy622], for which the Type entry was “Inactive (Decoy)”. With `COCCN(CCOC)S(=O)(=O)c1ccc(C(=O)Nc2sccc2C(=O)NN(C)C)cc1` [Decoy623], the Type entry is recorded as “Inactive (Decoy)”.
